Like-named read-outs stand apart in the source and are kept apart here. A value given as a limit tells only on which side of the number the result lay.

For the assay, the system named is Nrf2. The experiment in a line: Nrf2 activity by A549-ARE luciferase assay. The class given is cell-based. To be noted: read-out: Nrf2 activity. On the procedure: Example 1: Method for Measuring Nrf2 Activity of Benzimidazole or Benzoxazole Derivatives Using A549-ARE Luciferase Assay
An assay for Nrf2 activity was performed by modification of the method reported in Ilse M. Beck et al., (2013), European Journal of Pharmacology 715. 1-9.
Specifically, A549-ARE cell line was dispensed into a 96-well plate, and then subjected to treatment with a solution obtained by dissolving 10 μM of each compound in Table 2 in dimethyl sulfoxide (DMSO). On the other hand, Compounds 1 and 13 as shown in Table 2 were obtained from Sigma-Aldrich (US); Compounds 2, 5, 8, 9 12, 15, 18 to 20, 23, 25, 30, and 32 were obtained from Tokyo Chemical Industry Co., Ltd. (JP); Compound 3 was obtained from Labseeker (CN); Compound 4 was obtained from BOC Science (US); Compounds 6 and 7 were obtained from Cambridge (US); Compounds 10, 11, 16, 17, 21, and 22 were obtained from Toronto Research Chemicals (CA); Compound 14 was obtained from Selleckchem (US); Compounds 24, 26, 27, and 31 were obtained from BLD Pharm (CN); Compounds 28 and 33 were obtained from Mcule (US); Compound 29 was obtained from Chemshuttle (US); and Compound 34 was obtained from Alinda (RU).
Thereafter, the 96-well plate was treated with 30 μl of luciferase lysis buffer (90.8 mM K2HPO4, 9.2 mM KH2PO4, 0.1% Triton X-100), and then incubated for 30 minutes or longer so that cell lysis proceeded. The incubated cell lysate was transferred to another 96-well plate (white plate), and then each well was treated with 100 μl of luciferase buffer mixture (20 mM Tricine, 1.07 mM [(MgCO3)4Mg(OH)2.5H2O], 2.67 mM [MgSO4.7H2O], 0.1 mM EDTA, 33.3 mM DTT, 270 μM coenzyme A [CoA], 500 μM D-luciferin, 530 μM ATP). Immediately after the treatment, […] was performed to check Nrf2 activity.

[1] abbreviates: A549-ARE cell line, 10 μM of each compound in DMSO, Nrf2 activity (%) of compound relative to DMSO using luciferase assay.

Regarding `Cc1c(OCC(F)(F)F)cc[n+]([O-])c1C[S+]([O-])c1nc2ccccc2[nH]1` (stereo not drawn) [Compound 11, lansoprazole N-oxide], the activity at 10 µM under setting [1] fell in the range of 70 to 100%. As for `COCCCOc1ccnc(CSc2nc3ccccc3[nH]2)c1C` [Compound 20, rabeprazole sulfide], the activity at 10 µM under setting [1] was greater than 100%. `COc1ccc2[nH]c(S(=O)(=O)Cc3ncc(C)c(OC)c3C)nc2c1` [Compound 3, omeprazole sulfone]: the activity at 10 µM under setting [1] lay in the range of 0 to 30%. `Sc1nc2ccccc2[nH]1` [Compound 12, 2-mercaptobenzimidazole]: the activity at 10 µM was in the range of 0 to 30%. For `Cc1c(OCC(F)(F)F)ccnc1CSc1nc2ccccc2[nH]1` [Compound 9, lansoprazole sulfide], the activity at 10 µM under setting [1] is 70 to 100%. On to `O=c1[nH]c2ccc(Cl)cc2[nH]1` [Compound 26, 5-chloro-1,3-dihydrobenzimidazol-2-one], for which, under setting [1], the activity at 10 µM fell in the range of 0 to 30%. On to `COc1ccc2[nH]c([S+]([O-])Cc3ncc(C)c(OC)c3C)nc2c1` (stereo not drawn) [Compound 1, omeprazole, reference compound], for which, under setting [1], the activity at 10 µM was 0 to 30%. Still for that read-out and setting: next, `COc1ccnc(CS(=O)(=O)c2nc3cc(OC(F)F)ccc3[nH]2)c1OC` [Compound 16, pantoprazole sulfone]: 0 to 30%; `COc1ccc2[nH]c(=O)oc2c1` [Compound 29, 6-methoxybenzo[d]oxazol-2(3H)-one]: 30 to 70%. `Cn1c(S)nc2ccccc21` [Compound 13, 1-methyl-1H-benzimidazole-2-thiol]: the activity at 10 µM under setting [1] lay within 0 to 30%. Same read-out and setting: next, `S=c1[nH]c2cc3ccccc3cc2[nH]1` [Compound 33, 1,3-dihydrobenzo[f]benzimidazole-2-thione]: 0 to 30%; `COc1ccc2[nH]c(SCc3ncc(C)c(OC)c3C)nc2c1` [Compound 2, omeprazole sulfide]: 0 to 30%.

On to `O=c1[nH]c2cc(Cl)c(O)cc2o1` [Compound 31, 6-hydroxychlorzoxazone], for which the activity at 10 µM under setting [1] was in the range of 0 to 30%. In the case of `O=[N+]([O-])c1ccc2[nH]c(=S)[nH]c2c1` [Compound 30, 2-mercapto-5-nitrobenzimidazole], the activity at 10 µM under setting [1] lay within 0 to 30%. `O=S(=O)(O)c1ccc2[nH]c(=S)[nH]c2c1` [Compound 25, 2-sulfanyl-1H-benzimidazole-5-sulfonic acid]: the activity at 10 µM under setting [1] is 0 to 30%.

Regarding `COc1cc2nc(S)[nH]c2cc1OC` [Compound 34, 5,6-dimethoxy-1H-benzo[d]imidazol-2-thiol], the activity at 10 µM under setting [1] was 0 to 30%.

On to `Cc1cccc2[nH]c(=S)[nH]c12` [Compound 24, 4-methyl-1H-benzimidazole-2-thiol], for which the activity at 10 µM under setting [1] is 0 to 30%. On the same count and under the same terms, the same measure for `COCCCOc1ccnc(CS(=O)(=O)c2nc3ccccc3[nH]2)c1C` [Compound 21, rabeprazole sulfone]: 0 to 30%; for `COc1ccc2c(c1)nc(S)n2C` [Compound 6, 5-methoxy-1-methyl-1H-benzimidazole-2-thiol]: 30 to 70%; for `COCCCOc1ccnc(C[S+]([O-])c2nc3ccccc3[nH]2)c1C` (stereo not drawn) [Compound 19, rabeprazole, reference compound]: greater than 100%.

`Cc1c(OCC(F)(F)F)ccnc1C[S+]([O-])c1nc2ccccc2[nH]1` (stereo not drawn) [Compound 8, lansoprazole, reference compound]: the activity at 10 µM under setting [1] is greater than 100%.

Turning to `COc1ccnc(C[S+]([O-])c2nc3cc(OC(F)F)ccc3[nH]2)c1OC` (stereo not drawn) [Compound 14, pantoprazole, reference compound], the activity at 10 µM under setting [1] lay within 70 to 100%. For the molecule `S=c1[nH]c2ccc(Cl)cc2[nH]1` [Compound 32, 5-chloro-2-mercaptobenzimidazole], the activity at 10 µM under setting [1] was in the range of 70 to 100%. `COCCCOc1cc[n+]([O-])c(C[S+]([O-])c2nc3ccccc3[nH]2)c1C` (stereo not drawn) [Compound 22, rabeprazole N-oxide]: the activity at 10 µM under setting [1] lay in the range of 70 to 100%. As to `COc1ccc2[nH]c(SC)nc2c1` [Compound 7, 5-methoxy-2-(methylthio)-1H-benzimidazole], the activity at 10 µM under setting [1] is 0 to 30%. `COc1ccnc(CSc2nc3cc(OC(F)F)ccc3[nH]2)c1OC` [Compound 15, pantoprazole sulfide]: under setting [1], the activity at 10 µM lay in the range of 0 to 30%. On to `O=C1Cc2cc(O)ccc2N1` [Compound 27, 5-hydroxyindolin-2-one], for which the activity at 10 µM under setting [1] lay in the range of 0 to 30%. Regarding `Cc1c(OCC(F)(F)F)ccnc1CS(=O)(=O)c1nc2ccccc2[nH]1` [Compound 10, lansoprazole sulfone], the activity at 10 µM under setting [1] lay in the range of 0 to 30%. In the case of `O=c1[nH]c2c(Cl)c(Cl)c(Cl)cc2o1` [Compound 28, 4,5,6-trichloro-3H-a,3-benzoxazol-2-one], under setting [1], the activity at 10 µM is 0 to 30%. In the case of `COc1cc[n+]([O-])c(C[S+]([O-])c2nc3cc(OC(F)F)ccc3[nH]2)c1OC` (stereo not drawn) [Compound 17, pantoprazole N-oxide], the activity at 10 µM under setting [1] lay in the range of 70 to 100%. Turning to `COc1ccc2[nH]c(S)nc2c1` [Compound 5, 5-methoxy-2-benzimidazolethiol], the activity at 10 µM under setting [1] was 30 to 70%. With `FC(F)Oc1ccc2nc(S)[nH]c2c1` [Compound 18, 5-difluoromethoxy-2-mercaptobenzimidazole], the activity at 10 µM under setting [1] lay within 0 to 30%. Still for that read-out and setting: the same measure for `COc1ccc2[nH]c([S+]([O-])Cc3c(C)c(OC)c(C)c[n+]3[O-])nc2c1` (stereo not drawn) [Compound 4, omeprazole N-oxide]: 0 to 30%.

The values are drawn from US20220016099A1, “BENZIMIDAZOLE OR BENZOXAZOLE DERIVATIVES FOR PREVENTING AND TREATING CENTRAL NERVOUS SYSTEM DISEASE, DIABETES, AND COMPLICATIONS THEREOF” (TRINUERO, priority 2018, published 2022).
